Key:
Type in all cases: functional
[1] = Growth inhibition of human OVCAR8 cells at 10 uM after 48 hrs by sulforhodamine B assay; details: OVCAR-8, 48 h, values are per cent of control
[2] = test system: NCI-H460; experiment: Growth inhibition of human NCI-H460 cells at 10 uM after 48 hrs by sulforhodamine B assay; details: NCI-H460, 48 h, values are per cent of control
[3] = test system: MDA-MB-231; experiment: Growth inhibition of human MDA-MB-231 cells at 10 uM after 48 hrs by sulforhodamine B assay; details: MDA-MB-231, 48 h, values are per cent of control
[4] = test system: M14; experiment: Growth inhibition of human M14 cells at 10 uM after 48 hrs by sulforhodamine B assay; details: M14, 48 h, values are per cent of control
[5] = test system: NCI-H23; experiment: Growth inhibition of human NCI-H23 cells at 10 uM after 48 hrs by sulforhodamine B assay; details: NCI-H23, 48 h, values are per cent of control
[6] = test system: SK-MEL-5; experiment: Growth inhibition of human SK-MEL-5 cells at 10 uM after 48 hrs by sulforhodamine B assay; details: SK-MEL-5, 48 h, values are per cent of control
[7] = test system: NCI-H322M; experiment: Growth inhibition of human NCI-H322M cells at 10 uM after 48 hrs by sulforhodamine B assay; details: values are per cent of control
[8] = Growth inhibition of human SKOV3 cells at 10 uM after 48 hrs by sulforhodamine B assay; details: SK-OV-3, 48 h, values are per cent of control
[9] = Growth inhibition of human DU145 cells at 10 uM after 48 hrs by sulforhodamine B assay; details: DU-145, 48 h, values are per cent of control
[10] = test system: K562; experiment: Growth inhibition of human K562 cells at 10 uM after 48 hrs by sulforhodamine B assay; details: K562, 48 h, values are per cent of control
[11] = Growth inhibition of human UACC62 cells at 10 uM after 48 hrs by sulforhodamine B assay; details: UACC-62, 48 h, values are per cent of control
[12] = test system: MDA-MB-435; experiment: Growth inhibition of human MDA-MB-435 cells at 10 uM after 48 hrs by sulforhodamine B assay; details: MDA-MB-435, 48 h, values are per cent of control
[13] = Growth inhibition of human HCT116 cells at 10 uM after 48 hrs by sulforhodamine B assay; details: HCT-116, 48 h, values are per cent of control
[14] = test system: NCI-H522; experiment: Growth inhibition of human NCI-H522 cells at 10 uM after 48 hrs by sulforhodamine B assay; details: NCI-H522, 48 h, values are per cent of control
[15] = Growth inhibition of human OVCAR5 cells at 10 uM after 48 hrs by sulforhodamine B assay; details: OVCAR-5, 48 h, values are per cent of control
[16] = Growth inhibition of human LOXIMVI cells at 10 uM after 48 hrs by sulforhodamine B assay; details: LOX IMVI, values are per cent of control
[17] = Growth inhibition of human BT549 cells at 10 uM after 48 hrs by sulforhodamine B assay; details: BT-549, 48 h, values are per cent of control
[18] = Growth inhibition of human HCT15 cells at 10 uM after 48 hrs by sulforhodamine B assay; details: HCT-15, 48 h, values are per cent of control
[19] = test system: NCI-H226; experiment: Growth inhibition of human NCI-H226 cells at 10 uM after 48 hrs by sulforhodamine B assay; details: NCI-H226, 48 h, values are per cent of control
[20] = Growth inhibition of human SNB19 cells at 10 uM after 48 hrs by sulforhodamine B assay; details: SNB-19, 48 h, values are per cent of control
[21] = Growth inhibition of human SF295 cells at 10 uM after 48 hrs by sulforhodamine B assay; details: SF-295, 48 h, values are per cent of control
[22] = Growth inhibition of human SW620 cells at 10 uM after 48 hrs by sulforhodamine B assay; details: SW-620, 48 h, values are per cent of control
[23] = test system: A498; experiment: Growth inhibition of human A498 cells at 10 uM after 48 hrs by sulforhodamine B assay; details: A498, 48 h, values are per cent of control
[24] = Growth inhibition of human Hs 578T cells at 10 uM after 48 hrs by sulforhodamine B assay; details: values are per cent of control
[25] = Growth inhibition of human NCI-ADR-RES cells at 10 uM after 48 hrs by sulforhodamine B assay; details: values are per cent of control
[26] = test system: A549; experiment: Growth inhibition of human A549/ATCC cells at 10 uM after 48 hrs by sulforhodamine B assay; details: A549, 48 h, values are per cent of control
[27] = Growth inhibition of human Caki1 cells at 10 uM after 48 hrs by sulforhodamine B assay; details: CAKI-1, 48 h, values are per cent of control
[28] = Growth inhibition of human TK10 cells at 10 uM after 48 hrs by sulforhodamine B assay; details: TK-10, 48 h, values are per cent of control
[29] = Growth inhibition of human OVCAR4 cells at 10 uM after 48 hrs by sulforhodamine B assay; details: OVCAR-4, 48 h, values are per cent of control
[30] = Growth inhibition of human COLO205 cells at 10 uM after 48 hrs by sulforhodamine B assay; details: COLO 205, 48 h, values are per cent of control
[31] = test system: KM12; experiment: Growth inhibition of human KM12 cells at 10 uM after 48 hrs by sulforhodamine B assay; details: KM12, 48 h, values are per cent of control
[32] = Growth inhibition of human SF268 cells at 10 uM after 48 hrs by sulforhodamine B assay; details: SF-268, 48 h, values are per cent of control
[33] = test system: ACHN; experiment: Growth inhibition of human ACHN cells at 10 uM after 48 hrs by sulforhodamine B assay; details: values are per cent of control
[34] = test system: SN12C; experiment: Growth inhibition of human SN12C cells at 10 uM after 48 hrs by sulforhodamine B assay; details: values are per cent of control
[35] = test system: HT-29; experiment: Growth inhibition of human HT-29 cells at 10 uM after 48 hrs by sulforhodamine B assay; details: HT-29, 48 h, values are per cent of control
[36] = test system: T47D; experiment: Growth inhibition of human T47D cells at 10 uM after 48 hrs by sulforhodamine B assay; details: values are per cent of control
[37] = test system: SR; experiment: Growth inhibition of human SR cells at 10 uM after 48 hrs by sulforhodamine B assay; details: values are per cent of control
[38] = Growth inhibition of human SF539 cells at 10 uM after 48 hrs by sulforhodamine B assay; details: SF-539, 48 h, values are per cent of control
[39] = test system: U-251; experiment: Growth inhibition of human U251 cells at 10 uM after 48 hrs by sulforhodamine B assay; details: U-251, 48 h, values are per cent of control
[40] = test system: MDA-MB-468; experiment: Growth inhibition of human MDA-MB-468 cells at 10 uM after 48 hrs by sulforhodamine B assay; details: MDA-MB-468, 48 h, values are per cent of control

Row | SMILES | growth, % of control at 10 µM [1] | growth, % of control at 10 µM [2] | growth, % of control at 10 µM [3] | growth, % of control at 10 µM [4] | growth, % of control at 10 µM [5] | growth, % of control at 10 µM [6] | growth, % of control at 10 µM [7] | growth, % of control at 10 µM [8] | growth, % of control at 10 µM [9] | growth, % of control at 10 µM [10] | growth, % of control at 10 µM [11] | growth, % of control at 10 µM [12] | growth, % of control at 10 µM [13] | growth, % of control at 10 µM [14] | growth, % of control at 10 µM [15] | growth, % of control at 10 µM [16] | growth, % of control at 10 µM [17] | growth, % of control at 10 µM [18] | growth, % of control at 10 µM [19] | growth, % of control at 10 µM [20] | also measured
1 | N#C/C(=C\c1ccc(Cl)c(Cl)c1)c1ccc2c(c1)OCO2 | 70.9% | 84.7% | 80.5% | 96.5% | 88% | 98.4% | 74.1% | 70.6% | 94.1% | 94.8% | 108% | 93.7% | 70.1% | 82.7% | 99.3% | 62.7% | 94.1% | 88.7% | 98.9% | 105% | growth, % of control at 10 µM [21]: 77%; growth, % of control at 10 µM [22]: 89.8%; growth, % of control at 10 µM [23]: 94.3%; growth, % of control at 10 µM [24]: 81.3%; growth, % of control at 10 µM [25]: 79.3%; growth, % of control at 10 µM [26]: 70%; growth, % of control at 10 µM [27]: 87.4%; growth, % of control at 10 µM [28]: 90.2%; growth, % of control at 10 µM [29]: 26.1%; growth, % of control at 10 µM [30]: 93.2%; growth, % of control at 10 µM [31]: 91.7%; growth, % of control at 10 µM [32]: 80.9%; growth, % of control at 10 µM [33]: 49.1%; growth, % of control at 10 µM [34]: 93.5%; growth, % of control at 10 µM [35]: 102%; growth, % of control at 10 µM [36]: 74.7%; growth, % of control at 10 µM [37]: 77.7%; growth, % of control at 10 µM [38]: 86.9%; growth, % of control at 10 µM [39]: 86.3%; growth, % of control at 10 µM [40]: 101%
2 | COc1ccc(/C=C(\C#N)c2ccc3c(c2)OCO3)c(OC)c1 | 63.1% | 36% | 48.9% | 16.4% | 59.1% | 31.7% | 67.6% | 33.2% | 63.9% | 15.9% | 39.7% | -28.6% | 19.3% | 43.3% | 81.6% | 41% | 35.3% | 24.4% | 73.8% | 55.6% | growth, % of control at 10 µM [21]: 27.1%; growth, % of control at 10 µM [22]: 31.9%; growth, % of control at 10 µM [23]: 26.5%; growth, % of control at 10 µM [24]: 43.8%; growth, % of control at 10 µM [25]: 20.3%; growth, % of control at 10 µM [26]: 36.4%; growth, % of control at 10 µM [27]: 40%; growth, % of control at 10 µM [28]: 49.7%; growth, % of control at 10 µM [29]: 73.7%; growth, % of control at 10 µM [30]: 25.4%; growth, % of control at 10 µM [31]: 28.1%; growth, % of control at 10 µM [32]: 53.1%; growth, % of control at 10 µM [33]: 59.1%; growth, % of control at 10 µM [34]: 53.3%; growth, % of control at 10 µM [35]: 10%; growth, % of control at 10 µM [36]: 43.5%; growth, % of control at 10 µM [37]: 15.5%; growth, % of control at 10 µM [38]: 19%; growth, % of control at 10 µM [39]: 29.2%; growth, % of control at 10 µM [40]: 8.3%
